# Measurements as given in patent publication US20240366589A1, “NHE3-BINDING COMPOUNDS AND METHODS FOR INHIBITING PHOSPHATE TRANSPORT” (Ardelyx, Inc., priority 2013, published 2024).
# Assays:
# [1] = target: T1, Human NHE3 (Homo sapiens, UniProt P48764); test: Cell-based NHE3 activity under prompt conditions (OK cells, BCECF pH recovery), human NHE3; conditions: prompt conditions
# T1 construct: expressed in transfected cells; host or cells: Opossum kidney (OK) cells (ATCC), electroporation
# T1 sequence (P48764 26-834): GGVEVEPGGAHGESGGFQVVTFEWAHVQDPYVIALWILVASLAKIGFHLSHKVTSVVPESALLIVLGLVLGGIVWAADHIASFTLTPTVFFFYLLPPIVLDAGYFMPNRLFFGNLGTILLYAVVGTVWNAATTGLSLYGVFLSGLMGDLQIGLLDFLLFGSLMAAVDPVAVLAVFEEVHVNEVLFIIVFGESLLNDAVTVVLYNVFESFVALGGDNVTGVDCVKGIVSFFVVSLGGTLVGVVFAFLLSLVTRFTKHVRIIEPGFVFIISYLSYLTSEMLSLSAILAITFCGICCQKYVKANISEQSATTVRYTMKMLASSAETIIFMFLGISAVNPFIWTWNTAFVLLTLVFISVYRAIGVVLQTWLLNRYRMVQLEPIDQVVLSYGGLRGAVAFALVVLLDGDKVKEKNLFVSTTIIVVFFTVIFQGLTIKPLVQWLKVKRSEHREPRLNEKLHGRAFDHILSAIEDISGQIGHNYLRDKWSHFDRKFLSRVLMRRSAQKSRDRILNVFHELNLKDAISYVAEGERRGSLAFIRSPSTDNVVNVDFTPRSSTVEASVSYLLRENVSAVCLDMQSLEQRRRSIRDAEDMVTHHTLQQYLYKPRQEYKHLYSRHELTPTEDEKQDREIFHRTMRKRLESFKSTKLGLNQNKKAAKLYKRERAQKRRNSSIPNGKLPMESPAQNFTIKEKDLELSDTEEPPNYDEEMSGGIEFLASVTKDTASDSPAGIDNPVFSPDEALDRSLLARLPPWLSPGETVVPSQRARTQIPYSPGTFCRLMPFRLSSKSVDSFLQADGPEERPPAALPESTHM
# Procedure, shortened: (§1)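 OK cells electroporated with rat or human NHE3 were loaded with 5 μM BCECF-AM in NH4Cl-HEPES (pH 7.4) for 30 min at room temperature, then acid-loaded 10 min in Na+-free choline-HEPES.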
# [2] = tested on: absorption of sodium from the intestinal lumen; test: Inhibition of intestinal sodium absorption: urinary sodium (uNa) 16 h after single oral dose in rats; assay type: in vivo, rat; conditions: oral gavage, 16 h post-dose
# Procedure, shortened: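 Eight-week-old Sprague-Dawley rats (n=6) given single oral gavage of compound or water vehicle in the late afternoon, then kept in metabolic cages with chow and water ad libitum. Urine collected over 16 h; sodium quantified by ion chromatography and expressed as % of vehicle mean, compared by one-way ANOVA with Dunnett's test.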
# [3] = tested on: phosphorus and calcium levels in the urine of rats; test: Urinary excretion of phosphate and calcium in rats (16 h overnight urine); assay type: in vivo, rat; conditions: rats, oral gavage, 16 h post-dose
# [4] = target: T2, Rat NHE3 (Rattus norvegicus, UniProt P26433); test: Cell-based NHE3 activity under prompt conditions (OK cells, BCECF pH recovery), rat NHE3; conditions: prompt conditions
# T2 construct: expressed in transfected cells; host or cells: Opossum kidney (OK) cells (ATCC), electroporation
# Procedure, shortened: as §1
# [5] = tested on: absorption of sodium from the intestinal lumen; test: Fecal form score (FFS) 16 h after oral dose in rats; assay type: in vivo, rat; conditions: oral gavage, 16 h post-dose, scale 1-5
# Procedure, shortened: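 Eight-week-old Sprague-Dawley rats (n=6) dosed by oral gavage with compound or water vehicle between 4 and 5 PM, then housed in metabolic cages with food and water ad libitum. At 16 h, fecal form scored 1 (normal pellet) to 5 (liquid streams) by two observers; group mean reported.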
# T2 sequence (P26433 29-831): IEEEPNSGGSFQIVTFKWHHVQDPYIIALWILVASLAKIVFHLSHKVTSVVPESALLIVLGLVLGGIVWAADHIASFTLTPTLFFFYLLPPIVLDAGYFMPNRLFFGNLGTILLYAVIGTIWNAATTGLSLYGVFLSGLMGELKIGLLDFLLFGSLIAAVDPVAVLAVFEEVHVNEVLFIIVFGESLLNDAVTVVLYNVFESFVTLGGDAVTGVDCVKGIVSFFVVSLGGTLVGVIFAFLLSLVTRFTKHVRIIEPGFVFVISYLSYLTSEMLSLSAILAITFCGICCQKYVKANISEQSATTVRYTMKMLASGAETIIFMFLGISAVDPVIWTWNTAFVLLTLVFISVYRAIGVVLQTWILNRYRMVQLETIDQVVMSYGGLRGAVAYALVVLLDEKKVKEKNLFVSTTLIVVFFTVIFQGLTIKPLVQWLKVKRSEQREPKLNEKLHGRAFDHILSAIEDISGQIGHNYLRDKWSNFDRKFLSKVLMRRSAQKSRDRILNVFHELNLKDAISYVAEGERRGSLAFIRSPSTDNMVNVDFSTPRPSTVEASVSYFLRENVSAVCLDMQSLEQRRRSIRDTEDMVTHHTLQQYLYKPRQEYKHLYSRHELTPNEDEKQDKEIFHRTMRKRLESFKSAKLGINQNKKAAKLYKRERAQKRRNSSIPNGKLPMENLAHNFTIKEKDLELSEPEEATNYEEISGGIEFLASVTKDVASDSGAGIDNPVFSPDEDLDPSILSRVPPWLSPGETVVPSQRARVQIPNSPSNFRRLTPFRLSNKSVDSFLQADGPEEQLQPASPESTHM
Prompt Human NHE3 pIC50 [1],Prompt Rat NHE3 pIC50 [4],Structure (SMILES),Urine Na % of control ([2]; dose 10 mg/kg) [%],Urine P % of control ([3]; dose 10 mg/kg) [%],Fecal Form Score average ([5]; dose 10 mg/kg),other results
7.30,6.90,CN1Cc2c(Cl)cc(Cl)cc2C(c2cccc(S(=O)(=O)NCCOCCOCCOCCNC(=O)NCCN(CCNC(=O)NCCOCCOCCOCCNS(=O)(=O)c3cccc([C@@H]4CN(C)Cc5c(Cl)cc(Cl)cc54)c3)CCNC(=O)NCCOCCOCCOCCNS(=O)(=O)c3cccc([C@@H]4CN(C)Cc5c(Cl)cc(Cl)cc54)c3)c2)C1 (stereo in doubt) [compound 59],18,45,2,–
7.20,6.70,CN1Cc2c(Cl)cc(Cl)cc2[C@H](c2cccc(S(=O)(=O)NCCOCCOCCOCCNC(=O)NCCN3CCN(c4nc(N5CCN(CCNC(=O)NCCOCCOCCOCCNS(=O)(=O)c6cccc([C@@H]7CN(C)Cc8c(Cl)cc(Cl)cc87)c6)CC5)nc(N5CCN(CCNC(=O)NCCOCCOCCOCCNS(=O)(=O)c6cccc([C@@H]7CN(C)Cc8c(Cl)cc(Cl)cc87)c6)CC5)n4)CC3)c2)C1 [compound 70],96,83,1,–
8.20,7.40,CN1Cc2c(Cl)cc(Cl)cc2[C@H](c2cccc(S(=O)(=O)NCCOCCOCCOCCNC(=O)NCCCN(CCCNC(=O)NCCOCCOCCOCCNS(=O)(=O)c3cccc([C@@H]4CN(C)Cc5c(Cl)cc(Cl)cc54)c3)CCCNC(=O)NCCOCCOCCOCCNS(=O)(=O)c3cccc([C@@H]4CN(C)Cc5c(Cl)cc(Cl)cc54)c3)c2)C1 [compound 64],34,66,1,–
6.40,5.60,CN1Cc2c(Cl)cc(Cl)cc2[C@H](c2cccc(S(=O)(=O)NCCOCCOCCNC(=O)NCCN(CCNC(=O)NCCOCCOCCNS(=O)(=O)c3cccc([C@@H]4CN(C)Cc5c(Cl)cc(Cl)cc54)c3)CCNC(=O)NCCOCCOCCNS(=O)(=O)c3cccc([C@@H]4CN(C)Cc5c(Cl)cc(Cl)cc54)c3)c2)C1 [compound 76],12,61,3,Urine Na % of control ([2]; dose 1 mg/kg): 58%; Urine Na % of control ([2]; dose 3 mg/kg): 40%; Urine P % of control ([3]; dose 1 mg/kg): 96%; Urine P % of control ([3]; dose 3 mg/kg): 89%; Fecal Form Score average ([5]; dose 1 mg/kg): 1; Fecal Form Score average ([5]; dose 3 mg/kg): 2
8.00,8.10,CN(C)[C@H]1Cc2c(Cl)cc(Cl)cc2[C@@H]1Oc1ccc(S(=O)(=O)NCCOCCOCCNC(=O)COCC(=O)NCCOCCOCCNS(=O)(=O)c2ccc(O[C@H]3c4cc(Cl)cc(Cl)c4C[C@@H]3N(C)C)cc2)cc1 [compound 149],–,–,–,Urine Na % of control ([2]; dose 1 mg/kg): 54%; Urine Na % of control ([2]; dose 2 mg/kg): 53%; Urine Na % of control ([2]; dose 3 mg/kg): 46%; Urine P % of control ([3]; dose 1 mg/kg): 122%; Urine P % of control ([3]; dose 2 mg/kg): 69%; Urine P % of control ([3]; dose 3 mg/kg): 115%; Fecal Form Score average ([5]; dose 1 mg/kg): 1; Fecal Form Score average ([5]; dose 2 mg/kg): 2; Fecal Form Score average ([5]; dose 3 mg/kg): 1
7.90,7.40,O=C(NCCCCNC(=O)NCCOCCOCCOCCNS(=O)(=O)c1ccc(O[C@H]2c3ccccc3C[C@@H]2N2CCCCC2)cc1)NCCOCCOCCOCCNS(=O)(=O)c1ccc(O[C@H]2c3ccccc3C[C@@H]2N2CCCCC2)cc1 (racemic) [compound 51],79,52,1,–
<5.00,<5.00,CN1Cc2c(Cl)cc(Cl)cc2[C@H](c2cccc(S(=O)(=O)NCCOCCOCCNC(=O)CCC(CCC(=O)NCCOCCOCCNS(=O)(=O)c3cccc([C@@H]4CN(C)Cc5c(Cl)cc(Cl)cc54)c3)(CCC(=O)NCCOCCOCCNS(=O)(=O)c3cccc([C@@H]4CN(C)Cc5c(Cl)cc(Cl)cc54)c3)NCc3ccc(-c4ccc(Cl)cc4)cc3)c2)C1 [compound 113],64,61,1,–

# More lines, now with the values behind:
Structure (SMILES),Prompt Human NHE3 pIC50 [1],Prompt Rat NHE3 pIC50 [4],Urine Na % of control ([2]; dose 10 mg/kg) [%],Urine P % of control ([3]; dose 10 mg/kg) [%],Fecal Form Score average ([5]; dose 10 mg/kg),other results
CN1Cc2c(Cl)cc(Cl)cc2[C@H](c2cccc(S(=O)(=O)NCCOCCOCCOCCn3cc(CN(Cc4cn(CCOCCOCCOCCNS(=O)(=O)c5cccc([C@@H]6CN(C)Cc7c(Cl)cc(Cl)cc76)c5)nn4)Cc4cnnn4CCOCCOCCOCCNS(=O)(=O)c4cccc([C@@H]5CN(C)Cc6c(Cl)cc(Cl)cc65)c4)nn3)c2)C1 [compound 73],6.30,5.30,74,49,2,–
CN1Cc2c(Cl)cc(Cl)cc2[C@H](c2cccc(S(=O)(=O)NCCOCCOCCNC(=O)NCCCCNC(=O)NCCOCCOCCNS(=O)(=O)c3cccc([C@@H]4CN(C)Cc5c(Cl)cc(Cl)cc54)c3)c2)C1 [compound 180],8.30,8.03,–,–,–,Urine Na % of control ([2]; dose 0.03 mg/kg): 67%; Urine Na % of control ([2]; dose 0.1 mg/kg): 45%; Urine Na % of control ([2]; dose 0.3 mg/kg): 33%; Urine Na % of control ([2]; dose 1 mg/kg): 15%; Urine Na % of control ([2]; dose 3 mg/kg): 53%; Urine P % of control ([3]; dose 0.03 mg/kg): 80%; Urine P % of control ([3]; dose 0.1 mg/kg): 82%; Urine P % of control ([3]; dose 0.3 mg/kg): 75%; Urine P % of control ([3]; dose 1 mg/kg): 69%; Urine P % of control ([3]; dose 3 mg/kg): 38%; Fecal Form Score average ([5]; dose 0.03 mg/kg): 1; Fecal Form Score average ([5]; dose 0.1 mg/kg): 1; Fecal Form Score average ([5]; dose 0.3 mg/kg): 3; Fecal Form Score average ([5]; dose 1 mg/kg): 3; Fecal Form Score average ([5]; dose 3 mg/kg): 4
C/C(=C\c1cc(F)c(Oc2ccc(S(=O)(=O)NCCOCCOCCOCCN)cc2)c(F)c1)C(=O)N=C(N)N [compound 4],6.80,6.90,84,106,1,–
CN1Cc2c(Cl)cc(Cl)cc2[C@H](c2cccc(S(=O)(=O)NCCOCCOCCNC(=O)NCCN(CCNC(=O)NCCOCCOCCNS(=O)(=O)c3cccc([C@@H]4CN(C)Cc5c(Cl)cc(Cl)cc54)c3)C(=O)NCCCCCCCCCCCCNC(=O)N(CCNC(=O)NCCOCCOCCNS(=O)(=O)c3cccc([C@@H]4CN(C)Cc5c(Cl)cc(Cl)cc54)c3)CCNC(=O)NCCOCCOCCNS(=O)(=O)c3cccc([C@@H]4CN(C)Cc5c(Cl)cc(Cl)cc54)c3)c2)C1 [compound 86],5.90,5.80,87,89,1,–
N=C(N)Nc1nc(-c2cccc(N3CCN(CCOCCOCCOCCNC(=O)CCOCCOCCOCCOCCOCCOCCOCCC(=O)NCCOCCOCCOCCN4CCN(c5cccc(-c6nc(NC(=N)N)nc7ccc(Cl)cc67)c5)CC4)CC3)c2)c2cc(Cl)ccc2n1 [compound 32],8.40,7.30,128,122,1,–
CN(CC(=O)NCCOCCOCCNC(=O)NCCOCCOCCOCCOc1cccc(-c2nc(NC(=N)N)nc3ccc(Cl)cc23)c1)CC(=O)NCCOCCOCCNC(=O)NCCOCCOCCOCCOc1cccc(-c2nc(NC(=N)N)nc3ccc(Cl)cc23)c1 [compound 43],7.70,7.50,70,101,1,–
